From patent US11471444B2, “Methods of inhibiting tumor metastasis” (Vanderbilt University, priority 2017, dated 2022)

What was measured:
[1] = tested on: 4T1-RFP-luciferase cells; assay: Orthotopic 4T1 mouse model of metastasis (second experiment); assay type: in vivo, Balb/C mice; conditions: ifetroban 50 mg/kg daily or aspirin 12 mg/kg daily from tumor volume 50 mm^3; lungs harvested approx. 4 weeks later; FIG. 3
Protocol: 1×10^5 4T1-RFP-luciferase cells were implanted into the left inguinal mammary fatpads of 6-week old, virgin WT Balb/C female mice as above. Mice were treated by orogastric gavage with ifetroban (50 mg/kg daily) or vehicle control when average tumor volume reached 50 mm^3 as above. Additionally a third group was treated with aspirin (12 mg/kg daily). Lungs were harvested approximately 4 weeks later. Lungs were assessed by whole mount hematoxylin staining to enumerate surface metastases (macro metastases) (FIG. 3).

[2] = tested on: A549 (lung) cancer cells; assay: Hematogenous metastasis of lung cancer cells (tail vein injection); assay type: in vivo, nu/nu mice; conditions: 50 mg/kg by orogastric gavage, pre-treated 24 hours, daily for 21 days; FIG. 8
Protocol: (§1) MDA-MB-231 (breast), MiaPaca2 (pancreas) and A549 (lung) cancer cells were delivered by tail vein injection to nu/nu mice pre-treated 24 hours by orogastric gavage with ifetroban (50 mg/kg; N=10 per group) or vehicle (N=10). Mice continued daily treatment for an additional 21 days. On day 21, lungs were harvested and assessed for metastases. N=9, P value, Student's t-test.

[3] = tested on: 4T1 cells; assay: 4T1 cell culture growth and viability; assay type: cell-based; conditions: treated for 96 hours; FIG. 5A
Excerpt: For cell culture experiments, vehicle is PBS.

[4] = tested on: MiaPaca2 (pancreas) cancer cells; assay: Hematogenous metastasis of pancreatic cancer cells (tail vein injection); assay type: in vivo, nu/nu mice; conditions: 50 mg/kg by orogastric gavage, pre-treated 24 hours, daily for 21 days; FIG. 8
Protocol: as §1

[5] = tested on: MDA-MB-231 (breast) cancer cells; assay: Hematogenous metastasis of breast cancer cells (tail vein injection); assay type: in vivo, nu/nu mice; conditions: 50 mg/kg by orogastric gavage, pre-treated 24 hours, daily for 21 days; FIG. 8
Protocol: as §1

[6] = Total body weight of 4T1 tumor-bearing mice; assay type: in vivo, Balb/C mice; conditions: 50 mg/kg daily for 3 weeks; FIG. 5C
Protocol: (§2) 1×10^5 4T1-RFP-luciferase cells were implanted into the left inguinal mammary fat pads of 6-week old, virgin WT Balb/C female mice. Mice were treated by orogastric gavage with ifetroban (50 mg/kg daily; N=8) or vehicle control (N=4) when average tumor volume reached 200 mm^3. […] Mouse total body weight was not affected by Ifetroban treatment (50 mg/kg daily) for 3 weeks (FIG. 5C).

[7] = tested on: MDA-MB-231 cells; assay: Lung metastases after tail vein injection of MDA-MB-231 cells; assay type: in vivo, mice; conditions: 50 mg/kg daily by orogastric gavage from 48 h before cell injection, continued 3 weeks; FIG. 4
Protocol: Mice were randomized into groups receiving treatment by orogastric gavage with ifetroban (50 mg/kg daily) or vehicle, using 10 mice in both the ifetroban and control groups and 4% sucrose in water for the vehicle. Mice were treated 48 h prior to hematogenous delivery of MDA-MB-231 cells (1×10^5 cells) by tail vein injection, and ifetroban treatment was continued for 3 weeks thereafter, at which point lungs were collected from each mouse, and lung metastatic lesions visible to the naked eye were counted (FIG. 4).

[8] = tested on: 4T1-RFP-luciferase cells; assay: Orthotopic 4T1 mouse model of metastasis (first experiment); assay type: in vivo, Balb/C mice
Protocol: 1×10^5 4T1-RFP-luciferase cells were implanted into the left inguinal mammary fatpads of 6-week old, virgin WT Balb/C female mice using the following protocol. Mammary tumor cells (4T1-RFP-luciferase cells) are collected by trypsinization, counted, and resuspended in 50 microliters of serum-free media+50 microliters of growth factor-reduced Matrigel, for a total volume of 100 microliters. The cells are loaded into a syringe with a 26-g needle. The cells are injected into the inguinal mammary gland, which lies directly under (and attached to) the skin. The entire injection procedure takes about 10 seconds per mouse. Mice were treated by orogastric gavage with ifetroban (50 mg/kg daily) or vehicle control when average tumor volume reached 200 mm^3, using 8 mice in the ifetroban treatment group, 4 mice in the control group, and 4% sucrose in water for the vehicle. Tumors, lungs and plasma were harvested approximately 3 weeks later. Lungs were assessed by whole mount hematoxylin staining to enumerate surface metastases (macro metastases) (FIG. 1). Lungs were sectioned and stained with hematoxylin and eosin to confirm that hematoxylin-stained nodules were metastatic lesions, and to enumerate microscopic metastases (FIG. 2).
as §2

SMILES	surface lung metastases (macro metastases) [1]	hematogenous metastasis to lungs, lung cancer cells [2]	4T1 cell number (automated cell counting) [3]	number of apoptotic 4T1 cells (Annexin V staining) [3]	hematogenous metastasis to lungs, pancreatic cancer cells [4]	hematogenous metastasis to lungs, breast cancer cells [5]	total mouse body weight [6]	lung metastatic lesions visible to the naked eye [7]	microscopic lung metastases ([8]; 50 mg/kg daily by orogastric gavage from tumor volume 200 mm^3, approx. 3 weeks, lung sections, hematoxylin and eosin, FIG. 2)	surface lung metastases (macro metastases) ([8]; 50 mg/kg daily by orogastric gavage from tumor volume 200 mm^3, lungs harvested approx. 3 weeks later, whole mount hematoxylin staining, FIG. 1)	primary tumor volume ([8]; 50 mg/kg daily for 3 weeks, FIG. 5B)
CC(=O)Oc1ccccc1C(=O)O [aspirin]	decrease	–	–	–	–	–	–	–	–	–	–
CCCCCNC(=O)c1coc([C@H]2[C@@H](Cc3ccccc3CCC(=O)O)[C@@H]3CC[C@H]2O3)n1 [ifetroban]	decrease	decreased	no ifetroban-mediated changes	no ifetroban-mediated changes	decreased	decreased	not affected	decrease	decrease	decrease	did not affect
